Reference: patent publication US20030203944A1, “Novel thiocarbamic acid derivatives and the pharmaceutical compositions containing the same” (priority 2000, published 2003)
Values belong to the compound of their own block, whether it stands above or below them.

Experiments:
[1] = target: T1, cation channel connected to vanilloid receptor (Rattus norvegicus, UniProt O35433); assay: Channel activity assay (patch clamp test); format: cell-based; parameters: key: NR: no response; +: antagonistic potency equal to capsazepine; ++: antagonistic potency 10 times higher than capsazepine; details: potency relative to capsazepine
T1 construct: endogenous in cells
Description: (2) Channel Activity Assay
Antagonistic activities of test compounds were assayed based on electrical change of cation channel connected to vanilloid receptor and experiments were conducted according to reference method (Oh et al., 1996, J. Neuroscience 16, pp1659-1667) (Table 1).

Male ICR mice [2] = assay: Analgesic activity test: mouse writhing test by inducing with phenyl-p-quinone; format: in vivo; details: writhes vs control
Description: (3) Analgesic Activity Test: Mouse Writhing Test by Inducing with Phenyl-p-quinone
Male ICR mice (mean body weight 25 g) were maintained in a controlled lighting environment (12 h on/12 h off) for experiment. Animals received an intraperitoneal injection of 0.3 ml of the chemical irritant phenyl-p-quinone (dissolved in saline containing 5% ethanol to be a dose of 4.5 mg/kg) and 6 min later, the number of abdominal constrictions was counted in the subsequent 6 min period. Animals (10 animals/group) received 0.2 ml of test compounds solution in vehicle of ethanol/Tween 80/saline (10/10/80) intraperitoneally 30 min before the injection of phenyl-p-quinone. A reduction in the number of writhes responding to the test drug compound relative to the number responding in saline control group was considered to be indicative of an analgesic effect. Analgesic effect was calculated by % inhibition equation (% inhibition=(C−T)/C×100), wherein C and T represent the number of writhes in control and compound-treated group, respectively (Table 2).

Male ICR mice [3] = assay: Antiinflammatory activity test: TPA-induced mouse ear edema test; format: in vivo; details: dose 1 mg/ear topical; ear weight increase 24 h after TPA
Description: (4) Antiinflammatory Activity Test: TPA (12-O-tetradecanoylphorbol 13-acetate)-induced Mouse Ear Edema Test
Male ICR mice (body weight 25-30 g), 10 animals/group, were treated topically on the right ear with 30 μl of TPA (2.5 μg) solution in acetone and after 15 min, […] of acetone or test compound solution in acetone was applied topically. After six hours, an identical treatment was applied again. After twenty four hours following the treatment of TPA, the animals were sacrificed and ear tissue was dissected using 6 mm-diameter punch. Ear tissue dissected were weighed to the nearest 0.1 mg on an electrobalance. The increased weight of the tissue compared to control group was considered as an index of inflammation. The percent inhibition is defined by the following equation:
% inhibition=(C−T)/C×100, wherein C and T represent an increase of ear weight in TPA-treated and ThA+drug-treated group, respectively.

[4] = dose 10 mg/kg intraperitoneally 30 min before phenyl-p-quinone

T1 sequence (O35433 whole entry): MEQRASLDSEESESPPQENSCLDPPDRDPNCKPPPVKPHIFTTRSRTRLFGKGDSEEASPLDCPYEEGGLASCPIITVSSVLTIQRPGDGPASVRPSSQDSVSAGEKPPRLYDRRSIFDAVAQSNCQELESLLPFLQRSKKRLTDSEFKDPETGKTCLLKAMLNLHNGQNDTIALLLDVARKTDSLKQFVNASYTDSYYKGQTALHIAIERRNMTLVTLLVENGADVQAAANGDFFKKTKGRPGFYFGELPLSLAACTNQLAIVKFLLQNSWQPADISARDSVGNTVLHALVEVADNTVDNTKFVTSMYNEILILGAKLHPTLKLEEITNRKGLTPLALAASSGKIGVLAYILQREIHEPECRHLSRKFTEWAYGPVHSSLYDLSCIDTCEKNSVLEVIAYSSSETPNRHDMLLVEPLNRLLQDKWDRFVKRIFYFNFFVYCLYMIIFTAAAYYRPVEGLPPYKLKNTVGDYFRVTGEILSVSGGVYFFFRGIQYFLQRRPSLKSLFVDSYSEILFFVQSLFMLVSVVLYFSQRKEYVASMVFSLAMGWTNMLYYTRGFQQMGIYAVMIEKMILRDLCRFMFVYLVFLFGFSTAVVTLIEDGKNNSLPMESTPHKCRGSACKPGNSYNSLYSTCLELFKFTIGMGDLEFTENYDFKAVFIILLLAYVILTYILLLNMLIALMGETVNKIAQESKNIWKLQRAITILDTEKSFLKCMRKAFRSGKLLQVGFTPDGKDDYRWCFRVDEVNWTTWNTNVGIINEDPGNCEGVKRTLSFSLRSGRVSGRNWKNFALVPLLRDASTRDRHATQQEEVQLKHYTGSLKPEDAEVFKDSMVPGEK

Structure (SMILES): COc1cc(CCC(CCc2ccc(C(F)(F)F)cc2)OC(=S)NCCc2ccccc2)ccc1O (stereo not shown) [Example 54]
Patch clamp Test (antagonistic activities) [1]: + | Analgesic effect (% Inhibition) (Male ICR mice [2]; [4]): 64% | Anti-inflammatory effect (% Inhibition) (Male ICR mice [3]): 40%

Structure (SMILES): COc1cc(OCC2CO2)ccc1O[Si](C)(C)C(C)(C)C (stereo not shown) [Example 60, t-butyl-(2-methoxy-4-oxiranylmethoxy-phenoxy)-dimethyl-silane]
Analgesic effect (% Inhibition) (Male ICR mice [2]; dose 1 mg/kg intraperitoneally 30 min before phenyl-p-quinone): 45% | Anti-inflammatory effect (% Inhibition) (Male ICR mice [3]): 45%

Structure (SMILES): CCC(COc1ccc(NS(C)(=O)=O)c(C(F)(F)F)c1)OC(=S)NCCc1ccccc1 (stereo not shown) [Example 83]
Patch clamp Test (antagonistic activities) [1]: +

Second part, led by results:

Patch clamp Test (antagonistic activities) [1]: +
Structure (SMILES): COc1cc(CCC(CCc2ccccc2)OC(=S)NCCc2ccccc2)ccc1O (stereo not shown) [Example 5, Phenethyl Thiocarbamic Acid O-[3-(4-hydroxy-3-methoxyphenyl)-1-phenethylpropyl] Ester]
Analgesic effect (% Inhibition) (Male ICR mice [2]; [4]): 44% | Anti-inflammatory effect (% Inhibition) (Male ICR mice [3]): 33%

Patch clamp Test (antagonistic activities) [1]: +
Structure (SMILES): COc1cc(CCC(C)(C)OC(=S)NCCc2ccccc2)ccc1O [Example 56]
